Experimental data: PubChem BioAssay AID190 (DTP/NCI, 2004)
Several values for one entry are separate records, joined by “and”; a condition that tells them apart may be missing. Equal values may be shown once. Inconclusive results and toxic doses are left out. Rule for the calls: active = survival T/C of 150% or more; inactive = T/C below 125% in these data.

Test system: AKR/Lw mice, AKR lymphoma ip, median survival T/C
Assay: NCI In Vivo Anticancer Drug Screen. Data for tumor model Lymphoma AKR (Transplanted) (intraperitoneal) in AKR/Lw mice
Settings: endpoint: median survival time, higher = longer survival
Experimental: The antitumor activity of compounds was measured in mice bearing transplantable tumors. Survival or tumor size were measured and the results are expressed as the measurement made in the treated group (T) divided by the measurement made in the vehicle treated control group (C). The tumor model used in this assay is Lymphoma AKR (Transplanted) (intraperitoneal) in AKR/Lw mice

[1] = dose: 12.0 mg/kg/injection, schedule: Q01DX001 (ip), vehicle: saline
[2] = dose: 25.0 mg/kg/injection, schedule: Q01DX001 (ip), vehicle: saline
[3] = dose: 100.0 mg/kg/injection, schedule: Q01DX001 (ip), vehicle: saline
[4] = dose: 100.0 mg/kg/injection, schedule: Q01DX001 (ip), vehicle: Klucel (hydroxypropylcellulose) (HPC)
[5] = dose: 200.0 mg/kg/injection, schedule: Q01DX001 (ip), vehicle: Klucel (hydroxypropylcellulose) (HPC)
[6] = dose: 200.0 mg/kg/injection, schedule: Q04DX003 (ip), vehicle: Klucel (hydroxypropylcellulose) (HPC)
[7] = dose: 400.0 mg/kg/injection, schedule: Q01DX001 (ip), vehicle: Klucel (hydroxypropylcellulose) (HPC)
[8] = dose: 400.0 mg/kg/injection, schedule: Q04DX003 (ip), vehicle: Klucel (hydroxypropylcellulose) (HPC)

Measured: T/C

CN(C)C(=O)c1cccc(COc2ccc(N3C(N)=NC(N)=NC3(C)C)cc2Cl)c1
inactive: dose: 0.25 mg/kg/injection, schedule: Q04DX003 (ip), vehicle: saline 105 % of control | dose: 0.5 mg/kg/injection, schedule: Q04DX003 (ip), vehicle: saline 108 % of control | dose: 1.0 mg/kg/injection, schedule: Q04DX003 (ip), vehicle: saline 97 % of control | dose: 1.2 mg/kg/injection, schedule: Q01DX009 (ip), vehicle: saline 100 % of control | dose: 1.25 mg/kg/injection, schedule: Q01DX009 (ip), vehicle: saline 106 % of control | dose: 2.0 mg/kg/injection, schedule: Q04DX003 (ip), vehicle: saline 114 % of control | dose: 3.1 mg/kg/injection, schedule: Q01DX009 (ip), vehicle: saline 100 % of control | dose: 4.0 mg/kg/injection, schedule: Q04DX003 (ip), vehicle: saline 114 % of control | dose: 6.2 mg/kg/injection, schedule: Q01DX009 (ip), vehicle: saline 94 % of control and 97 % of control and 108 % of control | dose: 8.0 mg/kg/injection, schedule: Q04DX003 (ip), vehicle: water 100 % of control | dose: 10.0 mg/kg/injection, schedule: Q04DX003 (ip), vehicle: saline 105 % of control | [1] 112 % of control | dose: 15.0 mg/kg/injection, schedule: Q01DX009 (ip), vehicle: saline 112 % of control | dose: 16.0 mg/kg/injection, schedule: Q04DX003 (ip), vehicle: water 109 % of control | dose: 18.0 mg/kg/injection, schedule: Q04DX003 (ip), vehicle: saline 109 % of control | [2] 112 % of control | dose: 32.0 mg/kg/injection, schedule: Q04DX003 (ip), vehicle: water 120 % of control | dose: 35.0 mg/kg/injection, schedule: Q04DX003 (ip), vehicle: saline 116 % of control and 120 % of control | dose: 37.5 mg/kg/injection, schedule: Q04DX003 (ip), vehicle: saline 116 % of control | dose: 64.0 mg/kg/injection, schedule: Q04DX003 (ip), vehicle: water 105 % of control

Cc1c(N)nc([C@H](CC(N)=O)NC[C@H](N)C(N)=O)nc1C(=O)N[C@H](C(=O)N[C@H](C)[C@@H](O)[C@H](C)C(=O)N[C@H](C(=O)NCCc1nc(-c2nc(C(=O)NCCC[S+](C)C)cs2)cs1)[C@@H](C)O)C(OC1OC(CO)C(O)C(O)C1OC1OC(CO)C(O)C(OC(N)=O)C1O)c1cnc[nH]1 (some centres not stated)
inactive: dose: 0.05 mg/kg/injection, schedule: Q01DX010 (ip), vehicle: saline 120 % of control | dose: 0.1 mg/kg/injection, schedule: Q01DX010 (ip), vehicle: saline 103 % of control | dose: 0.25 mg/kg/injection, schedule: Q01DX010 (ip), vehicle: saline 116 % of control | dose: 0.4 mg/kg/injection, schedule: Q01DX010 (ip), vehicle: saline 113 % of control | dose: 0.5 mg/kg/injection, schedule: Q01DX010 (ip), vehicle: saline 106 % of control | dose: 0.75 mg/kg/injection, schedule: Q01DX010 (ip), vehicle: saline 106 % of control | dose: 1.0 mg/kg/injection, schedule: Q01DX010 (ip), vehicle: saline 100 % of control | dose: 1.5 mg/kg/injection, schedule: Q01DX010 (ip), vehicle: saline 93 % of control | dose: 1.9 mg/kg/injection, schedule: Q01DX010 (ip), vehicle: saline 95 % of control | dose: 2.0 mg/kg/injection, schedule: Q01DX010 (ip), vehicle: saline 100 % of control

COc1cc2ccc(CCNCc3ccccc3)cc2cc1OC
inactive: dose: 25.0 mg/kg/injection, schedule: Q04DX003 (ip), vehicle: saline sonified 92 % of control | dose: 50.0 mg/kg/injection, schedule: Q04DX003 (ip), vehicle: saline sonified 95 % of control | [3] 116 % of control | dose: 100.0 mg/kg/injection, schedule: Q04DX003 (ip), vehicle: saline sonified 92 % of control

C1=CC2(OCCO2)C2CC=CC3(OCCO3)C2C1 (configuration not stated)
inactive: [3] 104 % of control | dose: 200.0 mg/kg/injection, schedule: Q01DX001 (ip), vehicle: saline 97 % of control | dose: 400.0 mg/kg/injection, schedule: Q01DX001 (ip), vehicle: saline 95 % of control

O=[N+]([O-])c1ccc(OCc2ccc(S(=O)(=O)F)c(Cl)c2)c(Cl)c1
inactive: dose: 3.0 mg/kg/injection, schedule: Q01DX009 (ip), vehicle: Klucel (hydroxypropylcellulose) (HPC) 104 % of control | dose: 6.0 mg/kg/injection, schedule: Q01DX009 (ip), vehicle: Klucel (hydroxypropylcellulose) (HPC) 88 % of control | dose: 12.0 mg/kg/injection, schedule: Q01DX009 (ip), vehicle: Klucel (hydroxypropylcellulose) (HPC) 95 % of control | dose: 12.5 mg/kg/injection, schedule: Q01DX009 (ip), vehicle: Klucel (hydroxypropylcellulose) (HPC) 100 % of control | [4] 97 % of control | dose: 100.0 mg/kg/injection, schedule: Q04DX003 (ip), vehicle: Klucel (hydroxypropylcellulose) (HPC) 90 % of control | [5] 97 % of control | [6] 88 % of control | [7] 90 % of control | [8] 90 % of control

CC(=O)CCN1C(=O)c2ccccc2C1=O
inactive: [4] 105 % of control | [5] 105 % of control | [6] 97 % of control | [7] 102 % of control | [8] 89 % of control

Cn1c(O)c(C=N)c(=O)n(C)c1=O
inactive: [1] 102 % of control | dose: 12.5 mg/kg/injection, schedule: Q04DX003 (ip), vehicle: saline 97 % of control | [2] 105 % of control | dose: 25.0 mg/kg/injection, schedule: Q04DX003 (ip), vehicle: saline 100 % of control | dose: 50.0 mg/kg/injection, schedule: Q01DX001 (ip), vehicle: saline 100 % of control | dose: 50.0 mg/kg/injection, schedule: Q04DX003 (ip), vehicle: saline 100 % of control

COc1cc2c(cc1OC)C13CCN4CC5=CCOC6CC(=O)N2C1C6C5CC43 (configuration not stated) (tested in a mixture with another compound)
inactive: dose: 45.0 mg/kg/injection, schedule: Q01DX001 (ip), vehicle: Klucel (hydroxypropylcellulose) (HPC) 100 % of control | dose: 65.0 mg/kg/injection, schedule: Q01DX001 (ip), vehicle: Klucel (hydroxypropylcellulose) (HPC) 100 % of control | [4] 106 % of control and 108 % of control | dose: 150.0 mg/kg/injection, schedule: Q01DX001 (ip), vehicle: Klucel (hydroxypropylcellulose) (HPC) 100 % of control
